Laboratory results from US11911346B2, “Orally administrated therapeutic for treating mild cognitive impairment (MCI) and improving human cognitive function” (BrainCare LLC, priority 2021, dated 2024).

Experiments:
salivary testosterone = conditions: olfactory exposure to 3% BCP over 20 minutes, women with low libido; cited from earlier work
[1] = system: concentration and response inhibition of participants with Subjective Cognitive Decline; test: Cambridge Brain Sciences (CBS) Double Trouble test; type: in vivo, human; conditions: for Double Trouble actual score: Week 4, normal 87-113
From the text: The Cambridge Brain Sciences (CBS) included a battery of four tests to measure various aspects of cognition and that affected different regions of the brain. Normal scores for each test ranged from 87 to 113.
The second test is Double Trouble and addresses concentration and response inhibition. It can detect early Alzheimer's disease and age-related cognitive decline. It has a high reproducibility and is useful in distinguishing impaired and unimpaired aging. The parts of the brain involved include the right prefrontal cortex and dorsolateral region.
The data are presented as mean±standard deviation (S.D.) at baseline, week 4, and week 8. Results from the Cognitive Failures Questionnaire and Cambridge Brain Sciences are compared using the Student's t-test in each intervention group between baseline and week 4 and between baseline and week 8. Significance was defined as p≤0.05. At each time point, the percentage change was compared with the values at baseline. This calculation was only obtained from the means between each time point, and the statistical analysis was not made on these percentage changes.
For Cambridge Brain Sciences tests, some responses were flagged as being a highly unusual response (found in less than 1% of Cambridge Brain Sciences normative database). […] These scores were considered to be invalid and excluded from the final analysis. For each participant, the combined mean scores of all four CBS tests were summed for at baseline and at week 8. The participants were then grouped according to these mean baseline score of all four tests as: below average (less than or equal to 100) and average and above (greater than 100).

acute or chronic pain = conditions: 60 mg of BCP daily, by day 4; 31 participants; cited from earlier work
[2] = one capsule daily (90 mg BCP), N=25
[3] = two capsules daily (180 mg BCP), N=22

C=C1CC/C=C(\C)CC[C@@H]2[C@@H]1CC2(C)C [BCP, beta-caryophyllene]
Salivary testosterone vs. control period (salivary testosterone): increased
Double Trouble: number of participants improved between baseline and week 8 [1, 2]: 15
Double Trouble: number of participants with no change between baseline and week 8 [1, 2]: 0
Double Trouble: number of participants worsened between baseline and week 8 [1, 2]: 9
Double Trouble: % of participants with sub-optimal score ([1]; one capsule daily (90 mg BCP), week 8 (56% at baseline)): 44%
Double Trouble actual score ([1]; one capsule daily (90 mg BCP)): 93 ± 15
Double Trouble percentage change ([1]; one capsule daily (90 mg BCP), Week 8, over 8 weeks): +5.3%
Double Trouble: % of participants with no change between baseline and week 8 [1, 3]: (14%)
Double Trouble: number of participants improved between baseline and week 8 [1, 3]: 14
Double Trouble: number of participants with no change between baseline and week 8 [1, 3]: 3
Double Trouble: number of participants worsened between baseline and week 8 [1, 3]: 5
Double Trouble actual score ([1]; two capsules daily (180 mg BCP)): 97.3 ± 15.2
% of participants reporting mitigation of pain (acute or chronic pain): 60%
